This is an account of results in PMC7099587 (ACS Central Science, 2020).

The Kd is a measure of binding affinity in units of concentration.

For one experiment, the target named is Shh. Particulars: read-out: KD (Shh); cited from earlier work.
In another experiment the target is Sonic Hedgehog (Shh) (Homo sapiens, UniProt Q15465). The experiment in a line: Shh binding assay.
Experiment [1] concerns the target HHIP L2 linear peptide L2 loop (Homo sapiens) (UniProt Q96QV1). Particulars: cited from earlier work.
The next experiment has as its target Keap1 Kelch domain (KKD) (Homo sapiens, UniProt Q14145). The experiment in a line: Keap1 Kelch domain direct binding assay.
The target in experiment [2] is Sonic Hedgehog construct with N-terminal poly-His tag and TEV-cleavable linker ("Shh") (UniProt Q15465). Description: ELISA. For orientation: In an ELISA, binding on a coated surface is turned into a signal by an enzyme label.
In experiment [3] the target is Kelch domain of Kelch-like ECH-associated protein 1 (Keap1). The experiment in a line: ELISA.

Numbered stars: 1 amine (or outer) side, 2 acyl side, 3 side chain; on linkers, the order of the positions; unused ones are H or OH. Bridge positions count the residues as written; N and C are the ends. Square brackets hold non-standard residues; d marks the D form. Ends that are not written are not given here. Peptide text beside a SMILES is read from it. CH2CH2 = C(C[*:2])[*:1]

Sequence of Keap1 Kelch domain (KKD) (Q14145 321-609 limits assumed): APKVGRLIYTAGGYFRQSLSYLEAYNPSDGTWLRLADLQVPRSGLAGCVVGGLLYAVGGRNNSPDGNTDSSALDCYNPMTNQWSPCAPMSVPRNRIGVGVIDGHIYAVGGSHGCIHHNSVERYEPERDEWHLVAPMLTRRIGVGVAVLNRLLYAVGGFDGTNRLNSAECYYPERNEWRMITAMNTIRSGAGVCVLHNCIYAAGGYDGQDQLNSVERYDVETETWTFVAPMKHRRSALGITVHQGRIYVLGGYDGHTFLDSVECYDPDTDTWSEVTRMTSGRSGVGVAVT

Turning to `O=C(C[C@@H]1C/C=C/CCC(=O)O[C@H](c2ccccc2)CNC1=O)NCc1ccc(Cl)cc1` [robotnikinin], the dissociation constant Kd on Shh is 3100 nM.
`CSCC[C@@H]1NC(=O)[C@H](C)NC(=O)[C@H](CCC(=O)O)NC(=O)[C@@H](NC(=O)[C@@H]2CCCN2C(=O)[C@H](CO)NC(=O)[C@H](CO)NC(=O)CNC(=O)[C@H](CO)NC(=O)CNC(=O)[C@H](CO)NC(=O)CNC(=O)[C@H](CCCCN)NC(=O)[C@H](CC(=O)O)NC(=O)[C@H](CC(=O)O)NC(=O)[C@H](CC(=O)O)NC(=O)[C@H](CC(=O)O)NC(=O)[C@H](CCCCN)NC(=O)[C@H](Cc2ccc(O)cc2)NC(=O)[C@H](CC(=O)O)NC(=O)[C@@H](N)CCSC)Cc2ccc(cc2)OCCSC[C@@H](C(=O)N[C@H](C(=O)N[C@@H](CC(=O)O)C(=O)N[C@H](C(=O)O)[C@@H](C)O)[C@@H](C)O)NC(=O)[C@H](CCSC)NC(=O)[C@H](CC(=O)O)NC1=O` [Shh-m1] (H-MDYKDDDDKGSGSGSSPYEAMDMCTDT-OH; linker 18-24 via CH2CH2; N-terminus and C-terminus assumed) had a Kd at Sonic Hedgehog (Shh) of 550 nM.
Consider Sonic Hedgehog (from UniProt Q15465), for which, in experiment [1], the Kd is 150000 nM.
In the case of `CSCC[C@@H]1NC(=O)[C@H](CCC(=O)O)NC(=O)[C@H](CCC(=O)O)NC(=O)[C@@H](NC(=O)[C@H](CC(=O)O)NC(=O)[C@H](CC(=O)O)NC(=O)[C@H](CC(C)C)NC(=O)[C@@H](NC(=O)[C@H](CO)NC(=O)CNC(=O)[C@H](CO)NC(=O)CNC(=O)[C@H](CCCCN)NC(=O)[C@H](CC(=O)O)NC(=O)[C@H](CC(=O)O)NC(=O)[C@H](CC(=O)O)NC(=O)[C@H](CC(=O)O)NC(=O)[C@H](CCCCN)NC(=O)[C@H](Cc2ccc(O)cc2)NC(=O)[C@H](CC(=O)O)NC(=O)[C@@H](N)CCSC)[C@@H](C)O)Cc2ccc(cc2)OCCSC[C@@H](C(=O)N[C@@H](CO)C(=O)N[C@@H](CC(=O)O)C(=O)N[C@H](C(=O)O)[C@@H](C)O)NC(=O)CNC(=O)[C@H](CC(=O)O)NC1=O` [cyclic version of the HHIP L2 sequence] (H-MDYKDDDDKGSGSTLDDYEEMDGCSDT-OH; linker 18-24 via CH2CH2; C-terminus assumed), the “fold lower affinity vs Shh-m1” value on Sonic Hedgehog (Shh) is ~7 fold.
With “cyclo[Y*D(X)ETGEC] (sidechain bridge or staple) [KKD(6X)-m2]”, the “fold higher affinity vs KKD-m1” value at Keap1 Kelch domain (KKD) is given as ~3 fold.
As for “cyclo[Y*D(X)ETGEC] (sidechain bridge or staple) [KKD(6X)-m1]”, the “fold higher affinity vs KKD-m1” value on Keap1 Kelch domain (KKD) is ~3 fold.
With “TLSW(Y*)EAMDMCTD (sidechain bridge or staple) [HL2-m5]”, the Kd on Shh is 170 nM.
With “cyclic version of the HHIP L2 sequence (from UniProt Q96QV1 375-387) (peptide)”, the Kd in experiment [2] came out at 3600 nM.

B1: KKD(6X)-m2 (peptide)
peptide: [O2beY]DIETGEC
modifications: thioether 1-8
For the molecule B1, the Kd in experiment [3] amounted to 40 nM.

B2: KKD(6X)-m1 (peptide)
peptide: [O2beY]DAETGEC
modifications: thioether 1-8
Turning to B2, in experiment [3], the dissociation constant Kd was determined as 40 nM.
